Assay results reported in patent US10611740B2, “Aryl dihydro-2H-benzo[b][1,4]oxazine sulfonamide and related compounds for use as agonists of RORγ and the treatment of disease” (Lycera Corporation, priority 2015, dated 2020).

Key:
RORγ-LBD = biological target: T1, RORγ-LBD (Homo sapiens, UniProt P51449); assay: RORγ-Ligand Binding Domain (LBD) TR-FRET Assay; assay type: biochemical;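 as to TR-FRET Assay Max Response: 665/615 nm ratio relative to signal without ursolic acid or compound set at 100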
T1 construct: made in house; host or cells: SF9 cells (baculovirus)
T1 sequence (P51449 269-508 limits assumed): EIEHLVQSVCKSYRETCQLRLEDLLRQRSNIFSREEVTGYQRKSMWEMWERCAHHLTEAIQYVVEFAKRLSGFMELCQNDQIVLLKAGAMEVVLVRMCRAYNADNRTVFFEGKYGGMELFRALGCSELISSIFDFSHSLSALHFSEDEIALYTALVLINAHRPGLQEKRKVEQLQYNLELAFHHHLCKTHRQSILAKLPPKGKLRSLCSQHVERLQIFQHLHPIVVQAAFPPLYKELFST
Summary of the method: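 Compounds, diluted in DMSO and then in assay buffer (1% DMSO final), were combined with His-tagged RORγ-LBD lysate at roughly 3 nM final and a 200 nM biotinylated SRC1 LXXLL peptide. Ursolic acid was included at 2 μM final. Coactivator recruitment was detected by TR-FRET.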

Gal4-RORγ-LBD = biological target: T2, Gal4-RORγ-LBD (Homo sapiens, UniProt P51449); assay: Gal4-RORγ Luciferase Reporter Assay in HEK-293T Cells; assay type: cell-based; settings: HEK-293 cells, luciferase reporter, with 2 μM ursolic acid
T2 construct: expressed in transfected cells; host or cells: HEK-293 cells (pcDNA3.1neo plasmid)
T2 sequence (P51449 269-508 limits assumed): T1 sequence (P51449 269-508 limits assumed)
Summary of the method: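 HEK-293 cells were transiently co-transfected with Gal4-RORγ-LBD and pGL4.31 Gal4-luciferase, with ursolic acid added at 2 μM final. Compounds were incubated overnight at 37° C. in 0.2% DMSO and luminescence read with One-Glo. Max Response is the upper plateau of a 4-parameter logistic fit, with signal lacking ursolic acid or compound set to 100.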

Compound	EC50 (RORγ-LBD)	EC50 (Gal4-RORγ-LBD)	TR-FRET Assay Max Response (RORγ-LBD)	Gal4-RORγ Assay Max Response (Gal4-RORγ-LBD)
COc1cc(S(=O)(=O)N2C[C@H](CCc3n[nH]c(=O)o3)Oc3ccc(-c4cc(F)ccc4F)cc32)ccc1F [Compound 28J, (S)-5-(2-(6-(2,5-difluorophenyl)-4-((4-fluoro-3-methoxyphenyl)-sulfonyl)-3,4-dihydro-2H-benzo[b][1,4]oxazin-2-yl)ethyl)-1,3,4-oxadiazol-2(3H)-one]	< 0.5 µM	< 0.5 µM	**** (The symbol “****” indicates a value greater than 200)	** (The symbol “**” indicates a value in the range of greater than 90 to 150)
COc1cc(S(=O)(=O)N2C[C@H](CCc3n[nH]c(=O)o3)Oc3ccc(-c4cccc(C(F)(F)F)n4)cc32)ccc1F [Compound 28K, (S)-5-(2-(4-((4-fluoro-3-methoxyphenyl)sulfonyl)-6-(6-(trifluoromethyl)pyridin-2-yl)-3,4-dihydro-2H-benzo[b][1,4]oxazin-2-yl)ethyl)-1,3,4-oxadiazol-2(3H)-one]	< 0.5 µM	< 0.5 µM	**** (The symbol “****” indicates a value greater than 200)	** (The symbol “**” indicates a value in the range of greater than 90 to 150)
CC(C)(O)C(=O)NCC[C@H]1CN(S(=O)(=O)c2cccc(C(F)(F)F)c2)c2cc(-c3cc(F)ccc3F)ccc2O1 [Compound 29, (S)—N-(2-(6-(2,5-difluorophenyl)-4-((3-(trifluoromethyl)phenyl)sulfonyl)-3,4-dihydro-2H-benzo[b][1,4]oxazin-2-yl)ethyl)-2-hydroxy-2-methylpropanamide]	< 0.5 µM	< 0.5 µM	**** (The symbol “****” indicates a value greater than 200)	** (The symbol “**” indicates a value in the range of greater than 90 to 150)
CN(C)c1cccc(-c2ccc3c(c2)N(S(=O)(=O)c2cccc(C(F)(F)F)c2)C[C@H](CCNC(=O)C(C)(C)O)O3)n1 [Compound 30A, (S)-N-(2-(6-(6-(dimethylamino)-pyridin-2-yl)-4-((3-(trifluoro-methyl)phenyl)sulfonyl)-3,4-dihydro-2H-benzo[b][1,4]-oxazin-2-yl)ethyl)-2-hydroxy-2-methylpropanamide]	< 0.5 µM	< 0.5 µM	**** (The symbol “****” indicates a value greater than 200)	* (The symbol “*” indicates a value in the range of 25 to 90)
O=C1CC(C(=O)NC[C@H]2CN(S(=O)(=O)c3cccc(C(F)(F)F)c3)c3cc(-c4cc(F)ccc4F)ccc3O2)C1 [Compound 30AA, (S)-N-((6-(2,5-difluorophenyl)-4-((3-(trifluoromethyl)phenyl)-sulfonyl)-3,4-dihydro-2H-benzo[b][1,4]oxazin-2-yl)methyl)-3-oxocyclobutane-1-carboxamide]	< 0.5 µM	< 0.5 µM	**** (The symbol “****” indicates a value greater than 200)	* (The symbol “*” indicates a value in the range of 25 to 90)
O=C(CC1CC1)NC[C@H]1CN(S(=O)(=O)c2cccc(C(F)(F)F)c2)c2cc(-c3cc(F)ccc3F)ccc2O1 [Compound 30AB, (S)-2-cyclopropyl-N-((6-(2,5-difluorophenyl)-4-((3-(trifluoromethyl)phenyl)sulfonyl)-3,4-dihydro-2H-benzo[b][1,4]oxazin-2-yl)methyl)acetamide]	< 0.5 µM	< 0.5 µM	**** (The symbol “****” indicates a value greater than 200)	* (The symbol “*” indicates a value in the range of 25 to 90)

More lines, main results first:

EC50 (RORγ-LBD)	EC50 (Gal4-RORγ-LBD)	Compound	TR-FRET Assay Max Response (RORγ-LBD)	Gal4-RORγ Assay Max Response (Gal4-RORγ-LBD)
< 0.5 µM	< 0.5 µM	CC(C)c1cccc(S(=O)(=O)N2C[C@H](CCc3n[nH]c(=O)o3)Oc3ccc(-c4cc(F)ccc4F)cc32)c1 [Compound 28D, (S)-5-(2-(6-(2,5-difluorophenyl)-4-((3-isopropylphenyl)sulfonyl)-3,4-dihydro-2H-benzo[b][1,4]-oxazin-2-yl)ethyl)-1,3,4-oxadiazol-2(3H)-one]	**** (The symbol “****” indicates a value greater than 200)	** (The symbol “**” indicates a value in the range of greater than 90 to 150)
< 0.5 µM	< 0.5 µM	COc1cccc(-c2ccc3c(c2)N(S(=O)(=O)c2cccc(C(F)(F)F)c2)C[C@H](CCc2n[nH]c(=O)o2)O3)c1 [Compound 28E, (S)-5-(2-(6-(3-methoxyphenyl)-4-((3-(trifluoromethyl)phenyl)-sulfonyl)-3,4-dihydro-2H-benzo[b][1,4]oxazin-2-yl)ethyl)-1,3,4-oxadiazol-2(3H)-one]	**** (The symbol “****” indicates a value greater than 200)	** (The symbol “**” indicates a value in the range of greater than 90 to 150)
< 0.5 µM	< 0.5 µM	CC(C)c1cccc(S(=O)(=O)N2C[C@H](CCc3n[nH]c(=O)o3)Oc3ccc(-c4cccc(N(C)C)n4)cc32)c1 [Compound 28F, (S)-5-(2-(6-(6-(dimethylamino)-pyridin-2-yl)-4-((3-isopropyl-phenyl)sulfonyl)-3,4-dihydro-2H-benzo[b][1,4]oxazin-2-yl)ethyl)-1,3,4-oxadiazol-2(3H)-one]	**** (The symbol “****” indicates a value greater than 200)	** (The symbol “**” indicates a value in the range of greater than 90 to 150)
< 0.5 µM	< 0.5 µM	COc1cc(F)cc(-c2ccc3c(c2)N(S(=O)(=O)c2cccc(C(F)(F)F)c2)C[C@H](CCc2n[nH]c(=O)o2)O3)c1F [Compound 28G, (S)-5-(2-(6-(2,5-difluoro-3-methoxyphenyl)-4-((3-(trifluoromethyl)phenyl)sulfonyl)-3,4-dihydro-2H-benzo[b][1,4]-oxazin-2-yl)ethyl)-1,3,4-oxadiazol-2(3H)-one]	**** (The symbol “****” indicates a value greater than 200)	** (The symbol “**” indicates a value in the range of greater than 90 to 150)
< 0.5 µM	< 0.5 µM	COc1cc(-c2ccc3c(c2)N(S(=O)(=O)c2cccc(C(F)(F)F)c2)C[C@H](CCc2n[nH]c(=O)o2)O3)nc(N(C)C)c1 [Compound 28H, (S)-5-(2-(6-(6-(dimethylamino)-4-methoxypyridin-2-yl)-4-((3-(trifluoromethyl)phenyl)sulfonyl)-3,4-dihydro-2H-benzo[b][1,4]-oxazin-2-yl)ethyl)-1,3,4-oxadiazol-2(3H)-one]	**** (The symbol “****” indicates a value greater than 200)	* (The symbol “*” indicates a value in the range of 25 to 90)
< 0.5 µM	< 0.5 µM	O=c1[nH]nc(CC[C@H]2CN(S(=O)(=O)c3cccc(C(F)(F)F)c3)c3cc(-c4cc(F)cc(F)c4Cl)ccc3O2)o1 [Compound 28I, (S)-5-(2-(6-(2-chloro-3,5-difluorophenyl)-4-((3-(trifluoromethyl)phenyl)sulfonyl)-3,4-dihydro-2H-benzo[b][1,4]oxazin-2-yl)ethyl)-1,3,4-oxadiazol-2(3H)-one]	**** (The symbol “****” indicates a value greater than 200)	** (The symbol “**” indicates a value in the range of greater than 90 to 150)
